Each structure is given as a SMILES string. Like-named read-outs stand apart in the source and are kept apart here.

The conditions of data set [1]: cited from earlier work; for Solubility: solvents as named in the cell, in water, hexane, ether.
The subject of data set [2] is IKK. As to conditions: cited from earlier work.
The conditions of data set [3]: compared with curcumin; cited from earlier work.
The subject of data set [4] is cell death. The note with it: compared with curcumin; cited from earlier work.
Data set [5] relates to tumor. As to conditions: compared with Cisplatin; cited from earlier work.
The conditions of data set [6]: compared with curcumin; cited from earlier work. This is another data set of the same source.
For data set [7] the following is noted: compared with Cisplatin; cited from earlier work.
Data set [8] concerns plasma protein. The experiment in a line: Behaviour of curcumin in the blood stream (plasma protein binding). As to conditions: higher physiological pH of blood. Format: in vitro ADME. The text has this: Since the hydroxyl groups are present in undissociated form when the pH is acidic, the curcuminoids' stability is greater in this environment.

`O=C(/C=C/c1ccc(O)cc1)CC(=O)/C=C/c1ccc(O)cc1` [Bisdemethoxy-CUR, Bis-4-hydroxycinnamoyl methane]: in data set [1], the Solubility result was “Insoluble in water, hexane, ether;”.

Consider `COc1cc(/C=C/C(=O)CC(=O)/C=C/c2ccc(O)cc2)ccc1O` [Demethoxy-CUR, 4-Hydroxycinnamoyl feruloyl methane], for which the Solubility result in data set [1] is on record as “Insoluble in water, hexane, ether;”.

In the case of `Cl.O=C1/C(=C/c2ccccc2F)CNC/C1=C\c1ccccc1F` [EF-24], in data set [2], the IKK inhibition entry is reported as “IKK inhibitor”. For the same molecule, the “Potency relative to curcumin” value in data set [3] is “more potent than curcumin”. Besides, in data set [4], the “Potency in inducing cell death relative to curcumin” value was 10 times. Also, the “Effectiveness in anti-tumor screening” value in data set [5] is “more effective than Cisplatin”. Also, the Bioavailability result in data set [6] is “considerably higher bioavailability”. Moreover, the “Potential of inducing adverse effects” value in data set [7] is given as “significantly lower potential of inducing adverse effects”.

Take `COc1cc(/C=C/C(=O)CC(=O)/C=C/c2ccc(O)c(OC)c2)ccc1O` [curcumin, Diferuloylmethane]: in data set [8], the “Plasma protein binding on entering the blood stream” value is “binds to plasma protein”. The Solubility result in data set [1] (listed as CUR) was “Insoluble in water, hexane, ether;”. Further, the Solubility in water result in data set [1] (water) is recorded as “insoluble in water”.

These data come from patent US11382871B2 (BRIU GmbH, priority 2012, dated 2022).
